{"source": "patent US12178840B2", "about": "“Method and compositions comprising a CT20 peptide” (UNIVERSITY OF CENTRAL FLORIDA RESEARCH FOUNDATION, INC., priority 2014, dated 2024)", "key": {"BT-549 cells [1]": {"system": "BT-549 cells", "test": "Cellular adhesion assay (fibronectin, crystal violet)", "type": "cell-based, human", "conditions": "48 hours, varying doses", "experimental": "(§1) Cellular adhesion assay: 96-well tissue culture plates were coated with 20 ug/mL fibronectin (Sigma) overnight at 4° C. Cells were then seeded in the plates at a density of 10,000 cells/well. Cells were treated with varying doses of CT20p for 48 hours. Plates were then shaken at 1400 rpm for 15 seconds, washed, and fixed with 10% neutral buffered formalin (Leica). Adhered cells were stained with 5 mg/mL crystal violet (Sigma) and absorbance at 595 nm was read on an EnVision plate reader (Perkin Elmer).\n(§2) The effect of CT20p was examined on a panel of cell lines by measuring the impact on cellular adhesion. Metastatic cells vary their adhesion patterns as dictated by their environment (Cheung and Ewald 2014), and targeting adhesion ability could mitigate metastasis. To examine the cell lines, plates were coated with fibronectin to provide an appropriate substrate for adhesion, and cells were treated with CT20p for 48 hours at varying doses (FIG. 5A). […] Treating at this dose would allow us to observe the molecular effects of the peptide prior to cell death."}, "MCF-10A cells": {"system": "MCF-10A cells", "test": "Cellular adhesion assay (fibronectin, crystal violet)", "type": "cell-based, human", "experimental": "as §1, §2"}, "MDA-MB-231 cells [2]": {"system": "MDA-MB-231 cells", "test": "Cellular adhesion assay (fibronectin, crystal violet)", "type": "cell-based, human", "conditions": "48 hours, varying doses", "experimental": "as §1, §2"}, "MDA-MB-436 cells [3]": {"system": "MDA-MB-436 cells", "test": "Cellular adhesion assay (fibronectin, crystal violet)", "type": "cell-based, human", "conditions": "48 hours, varying doses", "experimental": "as §1, §2"}, "MDA-MB-436 cells [4]": {"system": "MDA-MB-436 cells", "type": "cell-based, human", "conditions": "75 ug/mL, time course", "experimental": "(§3) Measurement of cell viability: Cells at 60% confluency were treated with CT20p at a dose of 75 ug/mL for varying lengths of time. Following treatment, cells were collected and stained with Sytox AADvanced and F2N12S Violet Ratiometric Apoptosis kit (Invitrogen). Data was acquired by flow cytometry on a FACS Canto (BD Biosciences), and analyzed with FCSExpress software (DeNovo).\n(§4) The cytotoxicity of CT20p to the cell lines was also assessed. To do this, cells were treated with the effective dose of CT20p in a time course-experiment, and membrane symmetry and permeability were examined by flow cytometry (FIG. 5B). […] BT-549 cells, on the other hand, were resistant to the effects of the peptide."}, "BT-549 cells [5]": {"system": "BT-549 cells", "test": "Cell viability by flow cytometry (Sytox AADvanced / F2N12S), time course", "type": "cell-based, human", "conditions": "75 ug/mL", "experimental": "as §3, §4"}, "MDA-MB-231 cells [6]": {"system": "MDA-MB-231 cells", "test": "Cell viability by flow cytometry (Sytox AADvanced / F2N12S), time course", "type": "cell-based, human", "conditions": "75 ug/mL", "experimental": "as §3, §4"}, "[7]": {"target": "T1, Purified recombinant CCTβ (Homo sapiens, UniProt P78371)", "T1 construct": "purchased MyBioSource; host or cells: E. coli", "T1 sequence (P78371 1-535)": "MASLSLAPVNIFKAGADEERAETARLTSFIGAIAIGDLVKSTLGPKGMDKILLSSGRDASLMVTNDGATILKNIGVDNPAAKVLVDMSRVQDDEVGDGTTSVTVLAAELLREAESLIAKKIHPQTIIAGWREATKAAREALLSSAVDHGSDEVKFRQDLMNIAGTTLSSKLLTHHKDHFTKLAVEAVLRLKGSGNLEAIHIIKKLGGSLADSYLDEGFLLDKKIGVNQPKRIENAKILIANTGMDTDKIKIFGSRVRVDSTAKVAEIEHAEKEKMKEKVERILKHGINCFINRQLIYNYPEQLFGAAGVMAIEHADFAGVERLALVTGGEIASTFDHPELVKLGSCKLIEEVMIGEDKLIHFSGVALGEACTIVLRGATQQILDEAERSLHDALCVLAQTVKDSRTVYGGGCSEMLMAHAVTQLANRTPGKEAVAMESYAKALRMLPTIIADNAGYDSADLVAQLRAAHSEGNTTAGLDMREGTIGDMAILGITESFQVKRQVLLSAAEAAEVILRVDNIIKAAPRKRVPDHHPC", "test": "Pull-down with purified recombinant CCTβ", "type": "binding", "conditions": "0.1 nmol CCTβ, CT20p-Biotin 0.1 to 4 nmol", "experimental": "FIG. 9 is representative data showing that CT20p binds directly to CCTβ. Purified recombinant CCTβ was tested for interaction with CT20p as described in Materials and Methods.\nPull down experiments: Lysate pull-downs were performed with 200 ug cell lysate, obtained by douncing as described above. Lysates were pre-cleared with streptavidin-agarose beads (Pierce), then incubated with […] of CT20-Biotin or biotin for 3 hours at room temperature, followed by overnight incubation at 4° C. with streptavidin-agarose beads. Beads were washed thoroughly with wash buffer (25 mM Tris, 150 mM NaCl, 0.1% NP40, pH7.4), then heated in 4× loading buffer (Invitrogen) for analysis by SDS-PAGE. Mass spectrometric analysis was performed by Moffit Cancer Center (Tampa, FL). Mass spectrometry results presented are of proteins with at least two unique peptides identified, and that were not recovered with biotin-only pull down. In-cell pull downs were performed by first delivering CT20p-Biotin encapsulated in nanoparticles to viable cells at a dose of 75 μg/mL for varying lengths of time. Following treatment, cells were collected and lysed by douncing. 200 ug of cell lysate were then incubated with streptavidin-agarose beads overnight at 4° C., and pull-down was completed as described above. […]"}, "[8]": {"system": "cells isolated from paired normal tissue", "test": "Lethality in cells isolated from paired normal tissue", "type": "cell-based, human", "conditions": "CT20 peptide in HBPE-NPs", "excerpt": "40× magnification. CCTβ was detected in invasive breast cancer.\nThe lethality of CT20 was also examined in cells isolated from primary breast tumors and paired normal tissue. […] To this end, the levels of CCTβ were examined in a pilot tissue array of breast cancer tissue cores by immunohistochemistry (IHC) and detected CCTβ in invasive breast cancer (FIG. 14B)."}}, "note": "Residues, ends and D or L forms follow the SMILES beside them.", "data": [{"molecule": "CC[C@H](C)[C@H](NC(=O)[C@@H](NC(=O)[C@H](CC(C)C)NC(=O)[C@H](CO)NC(=O)[C@H](C)NC(=O)[C@@H](NC(=O)[C@H](CC(C)C)NC(=O)[C@@H](NC(=O)CNC(=O)[C@H](C)NC(=O)[C@@H](NC(=O)[C@H](Cc1ccccc1)NC(=O)[C@@H](NC(=O)[C@@H](NC(=O)[C@@H](NC(C)=O)C(C)C)[C@@H](C)O)[C@@H](C)CC)C(C)C)C(C)C)[C@@H](C)O)[C@@H](C)O)C(=O)N[C@@H](Cc1c[nH]c2ccccc12)C(=O)N[C@@H](CCCCN)C(=O)N[C@@H](CCCCN)C(=O)N[C@@H](CCSC)C(=O)NCC(N)=O", "note": "[CT20] (Ac-VTIFVAGVLTASLTIWKKMG-NH2)", "values": [{"measurement": "Effect on cellular adhesion", "setting": "BT-549 cells [1]", "value": "particularly unaffected"}, {"measurement": "Detachment of cells", "setting": "MCF-10A cells; 75 μg/mL of CT20p", "value": "does not cause detachment"}, {"measurement": "Effect on cellular adhesion", "setting": "MCF-10A cells; 48 hours, varying doses, fibronectin", "value": "particularly unaffected"}, {"measurement": "Effect on cellular adhesion", "setting": "MDA-MB-231 cells [2]", "value": "dose-dependent loss of adhesion"}, {"measurement": "Effect on cellular adhesion", "setting": "MDA-MB-436 cells [3]", "value": "dose-dependent loss of adhesion"}, {"measurement": "Earliest time at which characteristics of cell death were displayed", "setting": "MDA-MB-436 cells [4]", "value": 6, "unit": "h"}, {"measurement": "Sensitivity to CT20p cytotoxicity", "setting": "BT-549 cells [5]", "value": "resistant"}, {"measurement": "Sensitivity to CT20p cytotoxicity", "setting": "MDA-MB-231 cells [6]", "value": "highly susceptible"}, {"measurement": "Direct interaction with CCTβ", "setting": "[7]", "value": "does interact directly with CCTβ"}, {"measurement": "Lethality", "setting": "[8]", "value": "not the normal cells"}]}]}
